Data published in patent US20030157107A1, “Agents for preventing or ameliorating insulin resistance and/or obesity” (priority 2000, published 2003).
Values belong to the compound of their own block, whether it stands above or below them. No end group written: not given here.

Experiments:
C57BL/6j mice = test: GIP administration and high fat diet loading test in normal mice; format: in vivo; settings: high fat diet
Experimental: The animals used were 17-week-old male C57BL/6j mice. An osmotic pump was implanted under the skin of the back of each animal. Groups of animals each consisting of 5 mice were continuously given GIP 20, 60 or 200 μg/kg/hour or physiological saline as control, and also given either high fat diet or control normal diet. The energy composition of high fat diet was: lipid 45%, carbohydrate 38%, and protein 17%. The energy composition of control normal diet was: lipid 13%, carbohydrate 60%, and protein 27%. The energy contents of high fat and control normal diets were 4.77 and 3.57 kcal/g, respectively. GIP administration and high fat diet loading were continued for 4 weeks.
The body weights were measured weekly, and their changes were compared between the groups. The blood samples were collected under fasting 4 weeks after the start of the experiment to determine the blood glucose and insulin levels.

glucagon-receptor = molecular target: T1, glucagon-receptor (Homo sapiens, UniProt P47871); test: Inhibition of glucagon-stimulated cAMP production in CHO cells expressing glucagon-receptor; format: cell-based; settings: CHO cells expressing glucagon-receptor stimulated by 100 pM glucagon, read-out: inhibitory rate on the action of glucagon (cAMP production)
T1 construct: expressed in transfected cells; host or cells: CHO cells
Experimental: (§1) Screening of low molecular GIP function inhibitors was performed in accordance with the Example 1 of the screening method. Specifically, the GIP-receptor expressing CHO cells were stimulated with 100 pM GIP in the presence and absence of the test compound, and the amount of produced cAMP was measured to determine the GIP function inhibitory activity of the test compound. In addition, in order to confirm the receptor specificity of the test compound, the CHO cells expressing receptors of GLP-1 and glucagon which belong to glucagon-secretin family like GIP were stimulated with GLP-1 and glucagon (100 pM), respectively, and the inhibitory activity of the test compound on production of CAMP was determined. Moreover, in order to determine other effects which are unrelated to these receptors, the CHO cells without introducing any of these receptor genes were stimulated with 5 μM forskolin, and the inhibitory effect of the test compound on production of cAMP was determined. As for positive control, 500 nM GIP (7-30)-NH2 (tGIP) was used. [drawing 1]

GIP-receptor = molecular target: T2, GIP-receptor (Homo sapiens, UniProt P48546); test: Inhibition of GIP-stimulated cAMP production in GIP-receptor expressing CHO cells; format: cell-based; settings: CHO cells expressing GIP-receptor stimulated by 100 pM GIP; read-out: EC50 of inhibition of the cAMP production inducing effect of GIP
T2 construct: expressed in transfected cells; host or cells: CHO cells
T2 sequence (P48546 22-466): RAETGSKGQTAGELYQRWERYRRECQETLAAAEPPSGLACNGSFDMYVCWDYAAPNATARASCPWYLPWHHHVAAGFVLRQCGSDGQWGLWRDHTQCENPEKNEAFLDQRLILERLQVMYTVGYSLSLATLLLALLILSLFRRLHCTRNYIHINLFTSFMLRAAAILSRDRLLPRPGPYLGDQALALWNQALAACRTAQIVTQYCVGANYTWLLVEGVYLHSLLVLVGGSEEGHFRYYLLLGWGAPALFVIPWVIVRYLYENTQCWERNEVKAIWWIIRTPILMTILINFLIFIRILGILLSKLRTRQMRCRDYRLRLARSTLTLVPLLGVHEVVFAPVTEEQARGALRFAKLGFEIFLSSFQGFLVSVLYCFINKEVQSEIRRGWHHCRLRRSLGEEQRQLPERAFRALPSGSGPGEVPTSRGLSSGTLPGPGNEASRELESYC
Experimental: 1. A method for screening drugs by monitoring an inhibitory activity on the production of cAMP, an intracellular transmitter of GIP, which according to the method described by Kubota et al. (Diabetes, 45: 1701-1705, 1996), uses the human GIP-receptor expressing cells where […] is introduced into the CHO cells, and make cAMP produced by GIP in Krebs-Ringer buffer solution containing 1 mM isobutylmethylxanthine at 37° C. for 30 minutes in the presence of the drug. Then cAMP is extracted with 30% trichloroacetic acid, and radioimmunoassay is used to quantitate cAMP. Alternatively, Scintillation Proximity Assay (SPA) provided by Amersham Pharmacia Biotech Co., Inc. is used to quantitate cAMP.
Screening of low molecular GIP function inhibitors was performed in accordance with the Example 1 of the screening method. Specifically, the GIP-receptor expressing CHO cells were stimulated with 100 pM GIP in the presence and absence of the test compound, and the amount of produced cAMP was measured to determine the GIP function inhibitory activity of the test compound. […] Moreover, in order to determine other effects which are unrelated to these receptors, the CHO cells without introducing any of these receptor genes were stimulated with 5 μM forskolin, and the inhibitory effect of the test compound on production of cAMP was determined. […]

GLP-1-receptor = molecular target: T3, GLP-1-receptor (Homo sapiens, UniProt P43220); test: Inhibition of GLP-1-stimulated cAMP production in CHO cells expressing GLP-1-receptor; format: cell-based; settings: CHO cells expressing GLP-1-receptor stimulated by 100 pM GLP-1
T3 construct: expressed in transfected cells; host or cells: CHO cells
Experimental: as §1

[1] = system: CHO cells without transfer of receptor genes; test: Inhibition of forskolin-stimulated cAMP production in CHO cells without transfer of receptor genes; format: cell-based; settings: 5 μM forskolin
Experimental: as §1

[2] = system: glucose absorption by the intestine; settings: reported in WO98/24464; cited from earlier work
[3] = continuous GIP 20, 60 or 200 μg/kg/hour, after 4 weeks, vs same diet without GIP

T1 sequence (P47871 26-477, species assumed): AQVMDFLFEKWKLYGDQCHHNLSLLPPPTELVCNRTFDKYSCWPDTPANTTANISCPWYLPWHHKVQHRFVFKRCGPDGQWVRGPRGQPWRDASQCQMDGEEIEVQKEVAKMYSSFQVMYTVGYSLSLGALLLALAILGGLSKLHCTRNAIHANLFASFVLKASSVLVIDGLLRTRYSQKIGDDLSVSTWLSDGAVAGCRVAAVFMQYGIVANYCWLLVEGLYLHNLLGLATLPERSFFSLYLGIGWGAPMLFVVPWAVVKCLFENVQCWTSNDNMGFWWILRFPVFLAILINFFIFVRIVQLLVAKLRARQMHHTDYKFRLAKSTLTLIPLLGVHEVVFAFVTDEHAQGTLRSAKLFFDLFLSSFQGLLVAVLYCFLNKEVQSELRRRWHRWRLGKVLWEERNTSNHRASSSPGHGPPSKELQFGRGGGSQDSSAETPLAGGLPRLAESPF
T3 sequence (P43220 24-463, species assumed): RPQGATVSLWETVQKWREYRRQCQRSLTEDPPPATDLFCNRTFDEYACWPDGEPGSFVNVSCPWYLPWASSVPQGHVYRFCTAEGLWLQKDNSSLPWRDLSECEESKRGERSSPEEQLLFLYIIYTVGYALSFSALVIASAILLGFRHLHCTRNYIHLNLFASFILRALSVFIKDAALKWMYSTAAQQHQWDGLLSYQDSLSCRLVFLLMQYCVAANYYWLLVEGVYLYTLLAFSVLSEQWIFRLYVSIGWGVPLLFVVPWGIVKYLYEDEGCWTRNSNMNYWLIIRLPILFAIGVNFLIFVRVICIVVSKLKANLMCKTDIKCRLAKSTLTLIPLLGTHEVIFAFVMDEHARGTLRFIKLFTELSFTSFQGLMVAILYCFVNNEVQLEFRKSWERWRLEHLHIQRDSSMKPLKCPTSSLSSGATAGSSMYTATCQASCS

Compound: GIP: gastric inhibitory polypeptide or glucose-dependent insulinotropic peptide, a gastrointestinal hormone (YAEGTFISDYSIAMDKIHQQDFVNWLLAQKGKKNDWKHNITQ; Gastric inhibitory polypeptide; UniProt P09681 52-93, looked up)
- body weight gain (C57BL/6j mice; continuous GIP 20, 60 or 200 μg/kg/hour by osmotic pump, 4 weeks): No further increase in the body weight gain
- fasting blood glucose levels (C57BL/6j mice; [3]): increased depending on the dose of GIP
- fasting blood insulin levels (C57BL/6j mice; [3]): tended to increase depending on the dose of GIP

- inhibition at 80 µM (glucagon-receptor): 27%
- EC50 (GIP-receptor): ~30 µM
- inhibitory effect on GLP-1 action (cAMP production) (GLP-1-receptor): almost no inhibitory effect
Compound: Cc1cc(O)n2nc(-c3ccccc3)c(Br)c2n1 [BMPP, 3-bromo-5-methyl-2-phenylpyrazolo[1,5-a]pyrimidine-7-ol]
- inhibitory effect on cAMP production stimulated by forskolin [1]: did not show any inhibitory effect

Compound: GIP (7-30)-NH2: fragmented peptide of GIP, known GIP-receptor antagonist, used as positive control (ISDYSIAMDKIHQQDFVNWLLAQK-NH2; UniProt P09681 58-81, looked up, fragment)
- glucose absorption by the intestine [2]: suppressed glucose absorption by the intestine
